Assay results taken from patent publication US20160030364A1, “Therapeutic Compositions and Uses Thereof” (MANUKA HEALTH NEW ZEALAND LIMITED, priority 2013, published 2016).

Test system: human colorectal adenocarcinoma cells (DLD-1)
Assay: MTT proliferation assay, DLD-1 (Examples 1-2)
Assay type: cell-based
Procedure: (§1) Test samples shown below in Table 2 were assessed for their ability to modulate the viability and proliferation of human colorectal adenocarcinoma cells (DLD-1) as assessed by the MTT assay. A positive control, 5-fluorouracil (5-FU) was included in addition to an unsupplemented cell control (negative control) in the study. The test samples were obtained by fractionation of propolis tincture.
as §1, with “study.” for “study. The test samples were obtained by fractionation of propolis tincture.”
Human colorectal adenocarcinoma epithelial cell lines were revived from cryostorage and cultured in the presence of the test and reference samples. The culture conditions for the cells were those described by the supplier of the cells (ATCC). An MTT assay was then performed on the cultures to determine the effect of the samples on the cell proliferation.
Working solutions were prepared by dissolving the test fractions in 15% ethanol (ETOH)/HBSS to a concentration of 2 mg/mL solids.
• 1. Human colorectal adenocarcinoma cells (ATCC CCI-221, DLD-1). • 2. Penicillin-streptomycin solution: 10000 units/mL penicillin, 10 mg/mL streptomycin in 0.9% NaCl (Sigma Cat #P-0781). Stored at −20° C. • 3. DMEM culture medium (Invitrogen Cat #12100-046) Stored at −20° C. • 4. Trypsin-EDTA solution: 0.25% Trypsin/EDTA, Invitrogen Cat#15400054 (×10 in stock). • 5. Phosphate buffered saline (PBS) (Prepared by TBL). • 6. Hanks Balanced Salt Solution (HBSS). (GIBCO Cat No. 14185-052). Stored at 4° C. • 7. Foetal Bovine Serum (GIBCO Cat #10091-148). Stored at −20° C. • 8. MTT Reagent: 100 mg/vial, (SIGMA Cat. No. M-2128) dissolved in PBS at 10 mg/mL and stored at −20° C. 5 mg/mL MTT solution were prepared in PBS and stored at 4° C. as working solution. • 9. MTT lysis buffer: 10% sodium dodecyl sulphate (SDS)/45% Dimethyl Formamide (20 g SDS was dissolved in 100 mL of double-distilled water (DDW), and 90 mL of Dimethyl Formamide added to the SDS solution). The pH was adjusted to 4.7 by glacial acetic acid, and DDW added up to a final volume of 200 mL. • 10. 5-Fluorouracil (5-FU), (Sigma Cat. No. F-6627). Two working solutions were prepared at 150 ng/mL and 75 ng/mL, dissolved in 15% Ethanol/HBSS. Final concentrations were 7.50 ng/mL and 3.75 ng/mL.
The medium for the propagation of the colorectal adenocarcinoma (DLD-1) cells was DMEM, supplemented with penicillin-streptomycin solution (10 mL per litre). FBS was added just before use to give 10% w/v.
• 1. The human colorectal adenocarcinoma cells (DLD-1) obtained from the American Type Culture Collection USA were revived from cryostorage. • 2. Following initial propagation using the media described above (see Medium Preparation), the culture was subcultured using the trypsin-EDTA as follows. The media was removed and 5 mL of the trypsin-EDTA solution added and incubated at 37° C. for 5 min or until all the cells had detached. The trypsin was neutralised by adding an equal volume of DMEM medium and the culture centrifuged at 300 g (1200 rpm) for 5 min at 4° C. • 3. The supernatant was decanted and the cell pellets resuspended in medium DMEM, FBS (10%), penicillin (100 units/mL), streptomycin (100 μg/mL). The cells were cultured at 37° C. in 5% CO2/95% air. • 4. After reaching confluence, the cells were detached using trypsin-EDTA and centrifuged as described in 2 above. • 5. The supernatants were discarded and the cells resuspended in DMEM and supplements as described in 3 above at 1.0×10^4 cells per mL. • 6. Into each well of three 96 well plates, 180 μl of the cells (1,800 cells/well) or medium was added. The plates were incubated at 5% CO2/95% air at 37° C. for 48 h which was sufficient to allow the cells to adhere. • 7. To each well, 20 μl of each, of the test samples or positive control was added. […]

[1] = Example 2, DLD-1, sample 200 μg/mL, 24 hours incubation

## O=C1C[C@@H](c2ccccc2)Oc2cc(O)cc(O)c21 [Pinocembrin, reference compound]
[1]
  Mean OD (570 nm): 0.0196
Homo sapiens, Example 2, DLD-1, sample 200 μg/mL, 24 hours incubation
  inhibition at 200 µg/mL: 94%

## O=c1[nH]cc(F)c(=O)[nH]1 [Sample 5-FU, 5-fluorouracil, reference compound]
Example 1, DLD-1, 5-FU 7.50 ng/ml
  Mean OD (570 nm): 0.657
Homo sapiens, Example 1, DLD-1, 5-FU 7.50 ng/ml
  inhibition at 0.0075 µg/mL: 6.69%

## COc1cc(O)c2c(=O)cc(-c3ccccc3)oc2c1 [Tectochrysin, tectochrysin]
[1]
  % inhibition: 29.45%
  Mean OD (570 nm): 0.2285

## O=C(O)/C=C/c1ccc(O)cc1 [p-coumaric acid, para-coumaric acid, reference compound]
Isolated from NZ propolis, data not shown in Example 2
  activity against DLD-1: inactive
